{"source": "patent US20030119013A1", "about": "“Identification of essential genes of Aspergillus fumigatus and methods of use” (priority 2001, published 2003)", "key": {"[1]": {"system": "invasive aspergillosis (IA)", "conditions": "patients with invasive aspergillosis; cited from earlier work"}, "[2]": {"system": "bar-coded strains bearing heterozygous mutations in HIS3, TUB1, ALG7, and ERG11", "conditions": "Saccharomyces cerevisiae, mixed population, challenged with respective compound; cited from earlier work"}, "[3]": {"system": "AfERG11β knockout strain and AfERG11α knockout strain", "assay": "Azole sensitivity on agar gradient plates, knockout strains", "type": "cell-based, Aspergillus fumigatus", "text": "(§1) Aspergillus fumigatus strains were constructed in which either the AfERG11 gene or the AfERG11β gene had been “knocked out.” Each of these strains was compared to the wild-type Aspergillus fumigatus strain CEA 10 with respect to its sensitivity, as analyzed on agar gradient plates, to two representative azole compounds, ketoconazole and itraconazole."}, "[4]": {"system": "wild-type Aspergillus fumigatus strain CEA 10", "assay": "Azole sensitivity on agar gradient plates, wild-type strain", "type": "cell-based", "conditions": "versus AfERG11 and AfERG11β knockout strains", "text": "as §1"}, "[5]": {"system": "Aspergillus fumigatus transformed cells containing the integrated PglaA promoter (AfHIS3)", "assay": "Titration against 3-aminotriazole of PglaA-AfHIS3 promoter replacement strain", "type": "cell-based", "text": "Aspergillus fumigatus is sensitive to the catalase inhibitor 3-aminotriazole (3-AT), which targets the product of the HIS3 gene. The concentration of 3-AT sufficient to inhibit growth of Aspergillus fumigatus is thusly dependent on the amount of HIS3 gene product present in the cells.\nFor instance, culturing the transformed cells containing the integrated PglaA promoter in a medium supplemented with different carbon sources or ratios of carbon sources allows the amount of AfHIS3 gene product to be increased or decreased relative to endogenous levels to generate cells that are more or less sensitive to 3-AT based on the amount of HIS3 gene product. It is known, for example, that transcription from the PglaA promoter is induced in the presence of maltose, repressed in the presence of xylose and intermediate levels of activity are detected from cells grown on glucose. By adjusting the ratio of maltose to xylose in the culture medium, the amount of transcription may be titrated, at least in a step-wise manner, to adjust levels of transcript in the cell."}}, "data": [{"compound": "C[C@@H]1[C@H](O)[C@@H](C)/C=C/C=C/C=C/C=C/C=C/C=C/C=C/[C@H](O[C@@H]2O[C@H](C)[C@@H](O)[C@H](N)[C@@H]2O)C[C@@H]2O[C@](O)(C[C@@H](O)C[C@@H](O)[C@H](O)CC[C@@H](O)C[C@@H](O)CC(=O)O[C@H]1C)C[C@H](O)[C@H]2C(=O)O", "note": "[AmB, amphotericin B]", "values": [{"measurement": "overall success rate of therapy for IA", "setting": "[1]", "result": 34, "unit": "%"}]}, {"compound": "tunicamycin", "values": [{"measurement": "sensitivity of heterozygous drug-target strain compared with other heterozygote bar-coded strains", "setting": "[2]", "result": "significantly greater sensitivity"}]}, {"compound": "CC(=O)N1CCN(c2ccc(OCC3COC(Cn4ccnc4)(c4ccc(Cl)cc4Cl)O3)cc2)CC1", "note": "(stereo not shown) [ketoconazole]", "values": [{"measurement": "resistance of AfERG11β knockout strain compared with AfERG11α knockout strain", "setting": "[3]", "result": "more resistant"}, {"measurement": "resistance of wild-type strain CEA 10 compared with either knockout strain", "setting": "[4]", "result": "more resistant"}]}, {"compound": "Nc1nc[nH]n1", "note": "[3-AT, 3-aminotriazole]", "values": [{"measurement": "sensitivity of heterozygous drug-target strain compared with other heterozygote bar-coded strains", "setting": "[2]", "result": "significantly greater sensitivity"}, {"measurement": "sensitivity of Aspergillus fumigatus to 3-aminotriazole", "setting": "[5]; Aspergillus fumigatus, general statement", "result": "sensitive"}, {"measurement": "resistance in the presence of 3-AT", "setting": "[5]; cells grown in the presence of maltose (e.g. 2% maltose), PglaA induced", "result": "increased resistance"}, {"measurement": "resistance to 3-AT", "setting": "[5]; cells grown in the presence of xylose (e.g. 1% xylose), PglaA repressed", "result": "decreased resistance"}]}, {"compound": "CCCCNC(=O)n1c(NC(=O)OC)nc2ccccc21", "note": "[benomyl]", "values": [{"measurement": "sensitivity of heterozygous drug-target strain compared with other heterozygote bar-coded strains", "setting": "[2]", "result": "significantly greater sensitivity"}]}, {"compound": "OC(Cn1cncn1)(Cn1cncn1)c1ccc(F)cc1F", "note": "[fluconazole]", "values": [{"measurement": "sensitivity of heterozygous drug-target strain compared with other heterozygote bar-coded strains", "setting": "[2]", "result": "significantly greater sensitivity"}]}]}
